From patent publication US10196424B2, “Oral peptide inhibitors of interleukin-23 receptor and their use to treat inflammatory bowel diseases” (Protagonist Therapeutics, Inc., priority 2014, dated 2019) come the findings set out here.

In the assay the test system is DSS-induced colitis in Sprague Dawley rats. In words: Rat colitis model: 9 days of 3% DSS-containing drinking water. Particulars: 100 mg/kg PO, QD. The format is in vivo.

Procedure: Rat Colitis Model: 9 Days of 3% DSS-Containing Drinking Water
In this model, colitis was induced in SD rats by 9 days of ad lib exposure to drinking water containing 3% DSS. The disease activity index (DAI) score and ratio of colon weight:colon length were compared between three study groups (n=6 rats/group): vehicle, 3% DSS, and 3% DSS with positive control (sulfasalazine administered at 100 mg/kg PO, QD).
Acute colitis was induced by feeding female Sprague Dawley rats with 3% (wt/vol) DSS dissolved in drinking water. […] A neutralizing anti-IL-23p19 antibody was used as a comparator, and was administered intraperitoneally at 4 mg/kg on the same day and fifth day after starting DSS. […] At necropsy, the entire colon was removed from the cecum to the rectum. The colon was measured for length, flushed with PBS to remove feces, weighed, and opened longitudinally to determine macroscopic score.
Statistical analysis for significance was compared to the vehicle treated group and was determined using Student's T-test (GraphPad Prism). Differences were noted as significant *p≤0.05, **p≤0.01, ***p≤0.001, ****p≤0.0001.

For `O=C(O)c1cc(/N=N/c2ccc(S(=O)(=O)Nc3ccccn3)cc2)ccc1O` [sulfasalazine], the “terminal ratio of colon weight:colon length” value (3% DSS rats with and without treatment) is reported as “significant”. Under “3% DSS rats, compared to DSS alone, from Day 5”, the “disease activity index (DAI) score” value is “attenuated the disease score”.
